Earlier results in patent US11807855B2, “Selection vectors and methods of selecting eukaryotic host cells” (Novartis AG, priority 2013, dated 2023).
Each block holds one compound with its values, some of them ahead of it.

Columns and labels:
[1] = target: wild type folate receptor alpha (Homo sapiens, UniProt P15328)
[2] = target: A49L mutated folate receptor alpha (Homo sapiens, UniProt P15328, A74L); conditions: A49L mutant
RFC = target: T1, RFC (Homo sapiens, UniProt P41440)
T1 sequence (P41440 1-591): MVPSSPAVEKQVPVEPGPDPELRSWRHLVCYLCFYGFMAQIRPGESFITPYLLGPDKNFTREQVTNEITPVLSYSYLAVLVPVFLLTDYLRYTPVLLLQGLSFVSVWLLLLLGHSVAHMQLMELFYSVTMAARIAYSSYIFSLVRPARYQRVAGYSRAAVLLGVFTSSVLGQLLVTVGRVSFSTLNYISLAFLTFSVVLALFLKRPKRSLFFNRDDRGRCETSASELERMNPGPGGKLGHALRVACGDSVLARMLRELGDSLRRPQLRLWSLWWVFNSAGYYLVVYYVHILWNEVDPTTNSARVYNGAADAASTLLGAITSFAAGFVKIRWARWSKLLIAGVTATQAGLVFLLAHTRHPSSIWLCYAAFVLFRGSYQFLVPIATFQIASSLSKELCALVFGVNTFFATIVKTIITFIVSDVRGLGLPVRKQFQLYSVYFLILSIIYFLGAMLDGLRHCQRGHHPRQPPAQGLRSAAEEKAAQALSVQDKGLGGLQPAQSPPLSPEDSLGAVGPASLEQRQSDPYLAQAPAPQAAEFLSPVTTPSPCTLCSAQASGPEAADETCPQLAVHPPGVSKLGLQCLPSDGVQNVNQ

Chain of wild type folate receptor alpha (P15328 25-234): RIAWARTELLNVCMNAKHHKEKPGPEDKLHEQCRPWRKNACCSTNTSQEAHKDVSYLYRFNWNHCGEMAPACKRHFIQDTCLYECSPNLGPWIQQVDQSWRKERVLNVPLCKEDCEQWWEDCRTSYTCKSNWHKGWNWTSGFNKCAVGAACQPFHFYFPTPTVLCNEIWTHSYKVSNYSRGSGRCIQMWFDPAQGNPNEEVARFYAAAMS
Chain of A49L mutated folate receptor alpha (P15328 25-234 A74L): as the sequence (P15328 25-234) above, with A50L counted along it

Structure (SMILES): CN1c2c(nc(N)[nH]c2=O)NCC1CNc1ccc(C(=O)N[C@@H](CCC(=O)O)C(=O)O)cc1 (single isomer, unassigned) [6S diastereoisomer of 5-methyltetrahydrofolate, 5-methyltetrahydrofolate]
- IC50 [1]: 2.9 nM
- IC50 [2]: 179 nM

Structure (SMILES): Nc1nc2c(c(=O)[nH]1)CC(CCc1ccc(C(=O)N[C@@H](CCC(=O)O)C(=O)O)cc1)CN2 (stereo partly shown) [5,10-dideazatetrahydrofolic acid]
- Ki (FR alpha and FR beta; using [3H]folic acid as a substrate): 0.4 to 1.3 nM

- Kd (FR alpha and FR beta): 1 nM
Structure (SMILES): C#CCN(c1ccc(C(=O)N[C@@H](CCC(=O)N[C@H](CCC(=O)O)C(=O)O)C(=O)O)cc1)[C@H]1CCc2cc3nc(CO)[nH]c(=O)c3cc21 [BGC945]

- Kd (FR alpha and FR beta): > 100 nM
Structure (SMILES): CN(Cc1cnc2nc(N)nc(N)c2n1)c1ccc(C(=O)N[C@@H](CCC(=O)O)C(=O)O)cc1 [MTX, methotrexate]

- Km (RFC): 200 to 400 µM
- Kd (FR alpha and FR beta): 0.1 to 1 nM
Structure (SMILES): Nc1nc2ncc(CNc3ccc(C(=O)N[C@@H](CCC(=O)O)C(=O)O)cc3)nc2c(=O)[nH]1 [folic acid]
